Measurements as given in publication PMC10714399, “Open Source Antibiotics: Simple Diarylimidazoles Are Potent against Methicillin-Resistant Staphylococcus aureus” (ACS Infectious Diseases, 2023).
≈ marks a conversion by molar mass, not a printed value. Like-named read-outs stand apart in the source and are kept apart here. Each block holds one compound with its values, some of them ahead of it.

What was measured:
[1] = tested on: S. aureus ATCC 25923 (methicillin-susceptible); assay: In vitro antibacterial activity, MIC (UCL), MSSA; format: cell-based, Staphylococcus aureus; conditions: for MIC: Staphylococcus aureus
Protocol: (§1) Staphylococcus aureus NCTC 13373 (mecA-positive; methicillin-resistant, NCTC 13373) was supplied by the National Collection of Type Cultures (NCTC), Public Health England, United Kingdom. Other organisms, S. aureus ATCC 25923 (methicillin-susceptible) and Enterococcus faecalis ATCC 51299 (vanA-positive; vancomycin-resistant), were obtained from the American Type Culture Collection (ATCC) via LGC Standards, UK. A suspension of each organism was prepared from an overnight plate culture (tryptone soya agar) in phosphate-buffered saline (PBS) and adjusted to an absorbance reading at 600 nm of 0.1, which is approximately equivalent to 1 × 10^8 colony-forming units (CFU) per mL. The cultures were further diluted 1:100 in isosensitest broth (Oxoid, United Kingdom) before 100 μL was used to inoculate each well of a 96-well plate that contained diluted samples of the OSA series. Compounds were evaluated over a 2-fold dilution range from 32 to 0.03 μg/mL. Stocks of the samples were prepared in 100% DMSO at […] before being diluted in isosenstitest broth. The highest concentration of DMSO present was 2%, which has been previously shown not to inhibit the growth of the microorganisms (data not shown). […] Vancomycin was used as a quality control compound.

[2] = tested on: Staphylococcus aureus NCTC 13373 (mecA-positive; methicillin-resistant); assay: In vitro antibacterial activity, MIC (UCL School of Pharmacy assay), MRSA; format: cell-based; conditions: for MIC: Staphylococcus aureus
Protocol: as §1

[3] = UCL assay, read-out: MSSA MIC (ug/mL) (UCL)
[4] = UCL assay, read-out: MRSA MIC (ug/mL) (UCL)

- MIC ([1]; read-out: MSSA MIC (UCL)): > 32 µg/mL
- MIC ([2]; UCL, read-out: MRSA MIC (UCL)): > 32 µg/mL
Structure (SMILES): Cc1ccc(-c2c(-c3ccccn3)nc3cc(N4CCNCC4)ccn23)cc1 [OSA_001014]

- MIC ([1]; read-out: MSSA MIC (UCL)): > 32 µg/mL
- MIC ([2]; UCL, read-out: MRSA MIC (UCL)): > 32 µg/mL
Structure (SMILES): Fc1ccc(Nc2c(-c3nccs3)nc3ccccn23)cc1 [OSA_001008]

- MSSA MIC [1]: > 32 µg/mL
- MRSA MIC [2]: > 32 µg/mL
Structure (SMILES): CC(C)CN(c1ccc(F)cc1)c1c(-c2ccccn2)nc2ccc(S(C)(=O)=O)cn12 [compound 1037]

- MIC ([2]; read-out: MRSA MIC): 4 µg/mL (≈ 13.3 µM)
Structure (SMILES): c1ccc(-c2nc3n(c2-c2ccc4ccoc4c2)CCC3)nc1 [compound 829]

- MIC ([2]; read-out: MRSA MIC): 4 µg/mL (≈ 12.6 µM)
Structure (SMILES): c1ccc(-c2nc3n(c2-c2ccc4ccsc4c2)CCC3)nc1 [compound 830]

- MIC [1, 3]: > 32 µg/mL
- MIC [2, 4]: > 32 µg/mL
Structure (SMILES): CC(C)CN(c1ccc(F)cc1)c1c(-c2ccccn2)nc2cnccn12 [OSA_001035]

- MIC [1, 3]: 32 µg/mL (≈ 88.5 µM)
- MIC [2, 4]: 32 µg/mL (≈ 88.5 µM)
Structure (SMILES): CC(C)CN(c1ccc(F)cc1)c1c(-c2ccccn2)nc2cccnn12 [OSA_001036]

- MIC ([1]; read-out: MSSA MIC): 8 µg/mL (≈ 22 µM)
- MIC ([2]; read-out: MRSA MIC): 8 µg/mL (≈ 22 µM)
Structure (SMILES): CSc1ccc2nc(-c3ccccn3)c(N(C)c3ccc(F)cc3)n2c1 [compound 1004]

- MIC [1, 3]: > 32 µg/mL
- MIC [2, 4]: > 32 µg/mL
Structure (SMILES): CC(C)CN(c1ccc(F)cc1)c1c(-c2ccccn2)nc2ccc(S(C)(=O)=O)cn12 [OSA_001037]

- MSSA MIC [1]: > 32 µg/mL
- MRSA MIC [2]: > 32 µg/mL
Structure (SMILES): COc1cccc(-c2nc3ccccn3c2N(CC(C)C)c2ccc(F)cc2)n1 [compound 1025]

- MSSA MIC [1]: > 32 µg/mL
- MRSA MIC [2]: > 32 µg/mL
Structure (SMILES): N#Cc1ccc(-c2c(-c3ccccn3)nc3ncccn23)cc1 [compound 1105]

- MIC ([1]; read-out: MSSA MIC): 8 µg/mL (≈ 23.9 µM)
- MIC ([2]; read-out: MRSA MIC): 8 µg/mL (≈ 23.9 µM)
Structure (SMILES): COc1ccc(-c2nc3ccccn3c2Nc2ccc(F)cc2)nc1 [compound 1022]

- MSSA MIC [1]: > 32 µg/mL
- MRSA MIC [2]: > 32 µg/mL
Structure (SMILES): N#Cc1ccc(-c2c(-c3ccccn3)nc3cccnn23)cc1 [compound 1103]

- MSSA MIC [1]: > 32 µg/mL
- MRSA MIC [2]: > 32 µg/mL
Structure (SMILES): Cc1ccc(-c2c(-c3ccccn3)nc3cc(C#N)ccn23)cc1 [compound 1013]

- MIC ([1]; read-out: MSSA MIC): > 32 µg/mL
- MIC ([2]; read-out: MRSA MIC): > 32 µg/mL
Structure (SMILES): CC(C)CN(c1ccc(F)cc1)c1c(-c2ccccn2)nc2ccncn12 [compound 1039]

- MIC ([1]; read-out: MSSA MIC): 8 µg/mL (≈ 22.1 µM)
- MIC ([2]; read-out: MRSA MIC): 6 µg/mL (≈ 16.6 µM)
Structure (SMILES): CC(C)CN(c1ccc(F)cc1)c1c(-c2ccccn2)nc2ncccn12 [compound 1038]

- MIC [1, 3]: > 32 µg/mL
- MIC [2, 4]: > 32 µg/mL
Structure (SMILES): CC(C)CN(c1ccc(F)cc1)c1c(-c2ccccn2)nc2ccncn12 [OSA_001039]

- MIC ([1]; read-out: MSSA MIC (UCL)): > 32 µg/mL
- MIC ([2]; UCL, read-out: MRSA MIC (UCL)): > 32 µg/mL
Structure (SMILES): CN1CCN(c2ccc(-c3c(-c4ccccn4)nc4ccccn34)cc2)CC1 [OSA_001012]

- MRSA MIC [2]: 8 µg/mL
Structure (SMILES): COc1ccc(-c2nc3ccccn3c2N(CC(C)C)c2ccc(F)cc2)nc1 [compound 1034]

- MIC [1, 3]: > 32 µg/mL
- MIC [2, 4]: > 32 µg/mL
Structure (SMILES): N#Cc1ccc(-c2c(-c3ccccn3)nc3ccccn23)cc1 [OSA_001104]

- MIC ([1]; read-out: MSSA MIC): > 32 µg/mL
- MIC ([2]; read-out: MRSA MIC): > 32 µg/mL
Structure (SMILES): Fc1ccc(Nc2c(-c3nccs3)nc3ccccn23)cc1 [compound 1008]

- MIC ([1]; 16 h, read-out: MSSA MIC): 16 µg/mL (≈ 45.9 µM)
- MIC ([2]; 16 h, read-out: MRSA MIC): 16 µg/mL (≈ 45.9 µM)
Structure (SMILES): COc1cccn2c(N(C)c3ccc(F)cc3)c(-c3ccccn3)nc12 [compound 1001]

- MIC [1, 3]: > 32 µg/mL
- MIC [2, 4]: > 32 µg/mL
Structure (SMILES): N#Cc1ccc(-c2nc(-c3ccccn3)c[nH]2)cc1 [OSA_001102]

- MRSA MIC [2]: > 32 µg/mL
Structure (SMILES): c1ccc(-c2nc3n(c2-c2ccc4sccc4c2)CCC3)cc1 [compound 834]

- MIC [1, 3]: > 32 µg/mL
- MIC [2, 4]: > 32 µg/mL
Structure (SMILES): N#Cc1ccc(-c2c(-c3ccccn3)nc3cccnn23)cc1 [OSA_001103]

- MIC ([1]; read-out: MSSA MIC (UCL)): > 32 µg/mL
- MIC ([2]; UCL, read-out: MRSA MIC (UCL)): > 32 µg/mL
Structure (SMILES): Cc1ccc(-c2c(-c3ccccn3)nc3cc(C(N)=O)ccn23)cc1 [OSA_001015]

- MRSA MIC [2]: 16 µg/mL
Structure (SMILES): c1ccc(-c2nc3n(c2-c2ccc4c(c2)OCO4)CCCC3)nc1 [compound 818]

- MSSA MIC [1]: > 32 µg/mL
- MRSA MIC [2]: > 32 µg/mL
Structure (SMILES): N#Cc1ccc(-c2c(-c3ccccn3)nc3cnccn23)cc1 [compound 1106]

- MIC ([1]; 16 h, read-out: MSSA MIC): > 32 µg/mL
- MIC ([2]; 16 h, read-out: MRSA MIC): > 32 µg/mL
Structure (SMILES): CN(c1ccc(F)cc1)c1c(-c2ccccn2)nc2c(F)cccn12 [compound 1006]

- MIC [1, 3]: > 32 µg/mL
- MIC [2, 4]: 32 µg/mL (≈ 85.5 µM)
Structure (SMILES): CC(C)CN(Cc1c(-c2ccccn2)nc2ccccn12)c1ccc(F)cc1 [OSA_001040]

- MIC ([1]; read-out: MSSA MIC): > 32 µg/mL
- MRSA MIC [2]: 32 µg/mL
- MIC ([2]; 16 h, read-out: MRSA MIC): > 32 µg/mL
- MIC ([2]; read-out: MRSA MIC): > 32 µg/mL
Structure (SMILES): COc1ccc(-c2c(-c3ccccn3)nc3n2CCC3)cc1OC [compound 820]

- MIC ([2]; read-out: MRSA MIC): 4 µg/mL (≈ 13 µM)
Structure (SMILES): CSc1ccc(-c2c(-c3ccccn3)nc3n2CCC3)cc1 [compound 824]

- MIC [1, 3]: > 32 µg/mL
- MIC [2, 4]: > 32 µg/mL
Structure (SMILES): N#Cc1ccc(-c2c(-c3ccccn3)nc3ncccn23)cc1 [OSA_001105]

- MIC ([2]; read-out: MRSA MIC): 16 µg/mL (≈ 54.9 µM)
Structure (SMILES): COc1ccc(-c2c(-c3ccccn3)nc3n2CCC3)cc1 [compound 823]
